Laboratory results reported in patent publication US20180146698A1, “FORMULA FEED FOR POULTRY” (JXTG Nippon Oil & Energy Corporation, priority 2015, published 2018).
Each block holds one compound with its values, some of them ahead of it.

Key:
[1] = system: chickens; test: Chicken egg color enhancement test 2: yolk color fan value, feeds with corn contents of 30% to 50%; type: in vivo; details: for color fan value compared with t-capsanthin: corn contents of 30% and 50%
Method: The effects of the present invention were confirmed using feeds with corn contents of 30% to 50% in the same manner as in Example 1. Formula feeds were prepared by adding astaxanthin or t-capsanthin to feeds with the compositions listed in Table 5 so as to result in a final concentration of 1 to 16 ppm. In this Example, the feeds were the same except the corn content and the content of brown rice, which is added depending on a decrease in the corn content, and corn-derived corn gluten meal was not mixed therein. FIGS. 8a and 8b show the relationship between the astaxanthin and t-capsanthin concentrations in the feeds with corn contents of 30% and 50% and the yolk color fan values for the obtained eggs. Based on the results of FIGS. 8a and 8b, the concentrations of astaxanthin and t-capsanthin to be added to a feed in order to achieve a desired color fan value of 10 to 15 were calculated for feeds with corn contents of 30% and 50% (Table 6).

[2] = system: chickens; test: Yolk color measurement using colorimeter 2 (eggs of Example 8); type: in vivo; details: 2 ppm or 4 ppm; corn contents of 0% to 30%
Method: The yolk color of eggs obtained in Example 8 was measured using a colorimeter (CM-700d, Konica Minolta Inc.). FIGS. 14a to 14c show the measurement results of the L*, a*, and b* values, respectively.

[3] = system: Julia Light hens; test: Chicken egg color enhancement test 1: yolk color fan value, low- and standard-corn-content feed; type: in vivo, chickens; details: for change of color fan value, low-corn-content vs standard-corn-content feed / CF value: colorant added at 4 ppm
Method: A preparation of dry cells of a Paracoccus bacterium (with an astaxanthin content of 2%) and a paprika colorant preparation (with a t-capsanthin content of 0.25%) were used as coloring agents for evaluation. Cells of a nitrosoguanidine mutant strain obtained from the Paracoccus carotinifaciens E-396 strain (FERM BP-4283) were used as carotenoid-producing Paracoccus bacterial cells for a preparation of dry cells of a Paracoccus bacterium. The preparation was cultured in a seed flask medium and then cultured in a main culture medium at 28° C. under aerobic conditions until the bacterial cell concentration reached the maximum level. Next, the cultured cells were collected and recovered using a centrifuge. The recovered Paracoccus bacterial cells were dried using a double drum dryer at a drum rotation speed of 3.5 rpm and a drum temperature of 140° C. The average particle size (volume particle size D50) of the obtained power was approximately […]. The powder was further finely powderized (pulverized) using a jet mill (Seishin Enterprise Co., Ltd.) so that the average particle size (D50) became 9 μm. The obtained product was used as a preparation of dry cells of a Paracoccus bacterium. As a paprika colorant preparation, Color Up (a product with a total xanthophyll concentration of 5 g/kg, Kohkin Chemical Co., Ltd.) was used. The above preparations were added to a low-corn-content feed and a standard-corn-content feed listed in Table 1, thereby preparing formula feeds each containing astaxanthin or t-capsanthin at a final concentration of 1, 2, 4, or 8 ppm. Table 2 lists measured concentrations of astaxanthin and t-capsanthin contained in the actually produced formula feeds. Julia Light hens were used for tests. Ten chickens were provided for each test plot. The acclimatization period was set to 2 weeks. Eggs collected in Week 2, during which the color fan value became stabilized, or later, were evaluated. Eggs were collected from each test plot. The color fan values of 10 chicken eggs were measured using Egg Multitester EMT-7300 (JA Z-Tamago Co., Ltd.) for each test plot. The yolk carotenoid concentration was determined for 3 eggs for each test plot. FIGS. 1 and 2 show the relationship between the concentrations of astaxanthin and t-capsanthin in both feeds and the yolk color fan values of the obtained eggs. Based on the results of FIGS. 1 and 2, the concentrations of astaxanthin and t-capsanthin to be added to the low-corn-content feed in order to achieve a desired color fan value of 10 to 15 were calculated (Table 3). For example, in order to achieve a color fan value of 13, astaxanthin may be added to the low-corn-content feed so as to result in a final concentration of 2.2 ppm. Meanwhile, t-capsanthin needs to be added so as to result in a final concentration of 4.3 ppm.

[4] = cited from earlier work
[5] = system: chickens; test: Yolk carotenoid content and composition 3 (eggs of Example 8); type: in vivo; details: 2 ppm or 4 ppm; corn contents of 0% to 30%; fed 2 to 4 weeks
Method: The yolk carotenoid concentration in eggs obtained in Example 8 was determined for five eggs for each test plot in the same manner as in Example 1.

[6] = system: chickens; test: Yolk color measurement using colorimeter 1 (eggs of Example 5); type: in vivo; details: coloring agent 8 ppm or less; corn content 30% to 50%
Method: The yolk color was measured using a colorimeter (CM-700d, Konica Minolta Inc.) for eggs obtained in Example 5 and eggs obtained by using formula feeds listed in Table 5, which had been prepared by adding astaxanthin or t-capsanthin to a feed with a corn content of 40% so as to result in a final concentration of 2 ppm. FIGS. 9a to 9c show the measurement results of the L*, a*, and b* values, respectively.

[7] = system: chickens; test: Chicken egg color enhancement test 3: yolk color fan value, feeds with corn contents of 0% to 30%; type: in vivo; details: coloring agent 2 ppm or 4 ppm
Method: The effects of the present invention were confirmed using feeds with corn contents of 0% to 30% in the same manner as in Example 1.
Formula feeds were prepared by adding astaxanthin or t-capsanthin to feeds with the compositions listed in Table 7 so as to result in a final concentration of 2 ppm or 4 ppm. In this Example, the feeds were the same except the corn content and the content of brown rice, which is added depending on a decrease in the corn content, and corn-derived corn gluten meal was not mixed therein.

[8] = system: Julia Light hens; test: Yolk carotenoid concentration by HPLC, eggs of Example 1; type: in vivo, chickens; details: colorant added at 1 to 8 ppm
Method: Eggs were collected from each test plot. The color fan values of 10 chicken eggs were measured using Egg Multitester EMT-7300 (JA Z-Tamago Co., Ltd.) for each test plot. The yolk carotenoid concentration was determined for 3 eggs for each test plot.
Carotenoid quantities in the yolk and each feed were determined via high performance liquid chromatography (HPLC) as described below.
Two columns (Inertsil SIL-100A, 5 μm (ϕ 4.6×250 mm), GL Sciences) were connected in series for use. Elution was carried out with the introduction of an n-hexane/tetrahydrofuran/methanol liquid mixture (40:20:1) as a mobile phase at a constant temperature (around room temperature) and a flow rate of 1.0 mL per minute. Upon determination, samples were each dissolved in tetrahydrofuran and appropriately diluted with the mobile phase such that injection volume was adjusted to 20 μL. The detection for column eluate was carried out at a wavelength of 470 nm.
The yolk carotenoid concentration of eggs obtained in Example 1 was determined by the method described in Example 1 for three eggs for each test plot.
The standard-corn-content feed and the low-corn-content feed were compared in terms of the colorant concentration in the yolk when the coloring agents used in Example 1 were added to each feed at concentrations of 1 to 8 ppm.

[9] = system: chickens; test: Yolk carotenoid content and composition 2 (eggs of Examples 5 and 6); details: corn contents of 30% to 50%; 1 to 16 ppm; fed 2 to 4 weeks
[10] = cited from earlier work; remark: listed apart in the source
[11] = desired CF value 10, 30% Corn feed
[12] = desired CF value 10, 50% Corn feed
[13] = desired CF value 11, 30% Corn feed
[14] = desired CF value 11, 50% Corn feed
[15] = desired CF value 12, 30% Corn feed
[16] = desired CF value 12, 50% Corn feed
[17] = desired CF value 13, 30% Corn feed
[18] = desired CF value 13, 50% Corn feed
[19] = desired CF value 14, 30% Corn feed
[20] = desired CF value 14, 50% Corn feed
[21] = desired CF value 15, 30% Corn feed
[22] = desired CF value 15, 50% Corn feed
[23] = desired CF value 10, low-corn-content feed
[24] = desired CF value 11, low-corn-content feed
[25] = desired CF value 12, low-corn-content feed
[26] = desired CF value 13, low-corn-content feed
[27] = desired CF value 14, low-corn-content feed

Structure (SMILES): CC1=C(/C=C/C(C)=C/C=C/C(C)=C/C=C/C=C(C)/C=C/C=C(C)/C=C/C(=O)[C@]2(C)C[C@@H](O)CC2(C)C)C(C)(C)C[C@H](O)C1 (relative stereo) [t-Capsanthin, trans-capsanthin, reference compound]
Colorant concentration in feed to achieve desired CF value [1, 11]: 2.1 ppm | Colorant concentration in feed to achieve desired CF value [1, 12]: 2.4 ppm | Colorant concentration in feed to achieve desired CF value [1, 13]: 2.8 ppm | Colorant concentration in feed to achieve desired CF value [1, 14]: 3.1 ppm | Colorant concentration in feed to achieve desired CF value [1, 15]: 3.6 ppm | Colorant concentration in feed to achieve desired CF value [1, 16]: 4.0 ppm | Colorant concentration in feed to achieve desired CF value [1, 17]: 4.7 ppm | Colorant concentration in feed to achieve desired CF value [1, 18]: 5.2 ppm | Colorant concentration in feed to achieve desired CF value [1, 19]: 6.4 ppm | Colorant concentration in feed to achieve desired CF value [1, 20]: 6.8 ppm | Colorant concentration in feed to achieve desired CF value [1, 21]: 9.8 ppm | Colorant concentration in feed to achieve desired CF value [1, 22]: 9.7 ppm | a* value (red color) of yolk in relation to corn content [2]: increased in proportional to the corn content | change of color fan value, low-corn-content vs standard-corn-content feed [3]: did not increase | CF value ([3]; low-corn-content feed): 12.2 | CF value ([3]; standard-corn-content feed): 12.7 | Colorant concentration in feed necessary for achieving the desired CF value [3, 23]: 1.8 ppm | Colorant concentration in feed necessary for achieving the desired CF value [3, 24]: 2.4 ppm | Colorant concentration in feed necessary for achieving the desired CF value [3, 25]: 3.2 ppm | Colorant concentration in feed necessary for achieving the desired CF value [3, 26]: 4.3 ppm | Colorant concentration in feed necessary for achieving the desired CF value [3, 27]: 6.0 ppm

concentration transferred to the yolk compared with t-capsanthin [5]: greater than that of t-capsanthin
Structure (SMILES): CC1=C(/C=C/C(C)=C/C=C/C(C)=C/C=C/C=C(C)/C=C/C=C(C)/C=C/C2=C(C)C(=O)[C@@H](O)CC2(C)C)C(C)(C)C[C@H](O)C1=O [Astaxanthin, astaxanthin]
singlet oxygen quenching activity, stronger compared with vitamin E [4]: about 500 fold | color fan value compared with t-capsanthin ([1]; coloring agent 1 to 8 ppm): greater than those obtained using t-capsanthin | color fan value compared with t-capsanthin ([1]; coloring agent 16 ppm): no significant difference | Astaxanthin/t-Capsanthin ratio [1, 11]: 62% | Colorant concentration in feed to achieve desired CF value [1, 11]: 1.3 ppm | Astaxanthin/t-Capsanthin ratio [1, 12]: 58% | Colorant concentration in feed to achieve desired CF value [1, 12]: 1.4 ppm | Astaxanthin/t-Capsanthin ratio [1, 13]: 61% | Colorant concentration in feed to achieve desired CF value [1, 13]: 1.7 ppm | Astaxanthin/t-Capsanthin ratio [1, 14]: 61% | Colorant concentration in feed to achieve desired CF value [1, 14]: 1.9 ppm | Astaxanthin/t-Capsanthin ratio [1, 15]: 61% | Colorant concentration in feed to achieve desired CF value [1, 15]: 2.2 ppm | Astaxanthin/t-Capsanthin ratio [1, 16]: 63% | Colorant concentration in feed to achieve desired CF value [1, 16]: 2.5 ppm | Astaxanthin/t-Capsanthin ratio [1, 17]: 64% | Colorant concentration in feed to achieve desired CF value [1, 17]: 3.0 ppm | Astaxanthin/t-Capsanthin ratio [1, 18]: 65% | Colorant concentration in feed to achieve desired CF value [1, 18]: 3.4 ppm | Astaxanthin/t-Capsanthin ratio [1, 19]: 63% | Colorant concentration in feed to achieve desired CF value [1, 19]: 4.0 ppm | Astaxanthin/t-Capsanthin ratio [1, 20]: 69% | Colorant concentration in feed to achieve desired CF value [1, 20]: 4.7 ppm | Astaxanthin/t-Capsanthin ratio [1, 21]: 64% | Colorant concentration in feed to achieve desired CF value [1, 21]: 6.3 ppm | Astaxanthin/t-Capsanthin ratio [1, 22]: 82% | Colorant concentration in feed to achieve desired CF value [1, 22]: 8.0 ppm | a* value (red color) of yolk in relation to corn content [2]: did not cause the a* value to significantly vary | amount of astaxanthin relative to t-capsanthin to achieve the desired color fan value ([3]; color fan value of 13, low-corn-content feed): approximately 51% | change of color fan value, low-corn-content vs standard-corn-content feed [3]: increased | CF value ([3]; standard-corn-content feed): 12.8 | Astaxanthin/t-Capsanthin ratio [3, 23]: 0.56 | Colorant concentration in feed necessary for achieving the desired CF value [3, 23]: 1.0 ppm | Astaxanthin/t-Capsanthin ratio [3, 24]: 0.54 | Colorant concentration in feed necessary for achieving the desired CF value [3, 24]: 1.3 ppm | Astaxanthin/t-Capsanthin ratio [3, 25]: 0.53 | Colorant concentration in feed necessary for achieving the desired CF value [3, 25]: 1.7 ppm | Astaxanthin/t-Capsanthin ratio [3, 26]: 0.51 | Colorant concentration in feed necessary for achieving the desired CF value [3, 26]: 2.2 ppm | Astaxanthin/t-Capsanthin ratio [3, 27]: 0.53 | Colorant concentration in feed necessary for achieving the desired CF value [3, 27]: 3.2 ppm | Colorant concentration in feed necessary for achieving the desired CF value ([3]; desired CF value 15, low-corn-content feed): 7.0 ppm | a* value (red color) of yolk compared with t-capsanthin [6]: greater than that obtained with the addition of t-capsanthin | color fan value compared with t-capsanthin [7]: greater than that achieved by using t-capsanthin | yolk colorant concentration, low-corn-content vs standard-corn-content feed [8]: greater than that in eggs obtained from chickens fed with the standard-corn-content feed | amount of colorant accumulated in the yolk in relation to corn content [9]: tended to increase as the corn content decreased | lipid peroxidation inhibition activity, stronger compared with vitamin E [10]: about 1000 fold
